Where two headings read alike, the source gives them in different places.
Columns and labels:
human topoisomerase I = target: T1, human topoisomerase I (Homo sapiens, UniProt P11387); assay: Topoisomerase I-mediated DNA cleavage assay (Test A); type: biochemical; settings: for Topo I-mediated DNA cleavage (REC, Relative Effective Concentration): concentration relative to camptothecin (CPT = 1) producing the same cleavage on plasmid DNA, human topoisomerase I; for topoisomerase I poisoning activity (in words): qualitative statement
T1 construct: made in house
T1 sequence (P11387 1-765): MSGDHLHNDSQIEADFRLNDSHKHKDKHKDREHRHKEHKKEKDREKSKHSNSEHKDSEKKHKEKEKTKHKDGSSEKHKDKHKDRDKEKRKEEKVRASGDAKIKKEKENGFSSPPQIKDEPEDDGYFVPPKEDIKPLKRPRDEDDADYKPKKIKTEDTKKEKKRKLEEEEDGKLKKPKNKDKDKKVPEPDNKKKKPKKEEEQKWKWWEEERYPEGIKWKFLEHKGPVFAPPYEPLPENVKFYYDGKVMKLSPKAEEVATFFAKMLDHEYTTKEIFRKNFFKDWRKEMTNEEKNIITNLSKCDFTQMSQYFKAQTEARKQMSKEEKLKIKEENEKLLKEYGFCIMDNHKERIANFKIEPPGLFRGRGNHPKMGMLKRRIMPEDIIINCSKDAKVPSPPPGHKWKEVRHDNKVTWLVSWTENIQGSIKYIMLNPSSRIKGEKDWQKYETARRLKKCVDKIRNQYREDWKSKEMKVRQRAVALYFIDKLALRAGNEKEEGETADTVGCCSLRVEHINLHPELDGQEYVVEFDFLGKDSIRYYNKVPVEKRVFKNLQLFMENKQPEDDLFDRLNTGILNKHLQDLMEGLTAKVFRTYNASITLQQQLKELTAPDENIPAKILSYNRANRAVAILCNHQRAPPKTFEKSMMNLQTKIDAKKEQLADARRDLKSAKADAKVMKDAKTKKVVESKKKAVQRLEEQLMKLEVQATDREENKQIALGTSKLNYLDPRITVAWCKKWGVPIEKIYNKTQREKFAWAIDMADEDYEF
Protocol: (§1) Topoisomerase I and Topoisomerase II Cleavage Assay
(§2) Representative compounds of the invention were evaluated in cleavage assays for the recombinant topoisomerases I and calf thymus topoisomerases I and II. These assays were preformed as described by B. Gatto et al. Cancer Res., 1996, 56, 2795-2800. Human topoisomerase I was isolated as a recombinant fusion protein using a T7 expression system. DNA topoisomerase II was purified from calf thymus gland as reported by Halligan, B. D.; Edwards, K. A.; Liu, L. F. “Purification and characterization of a type II DNA topoisomerase from bovine calf thymus,” J. Biol. Chem. 1985, 260, 2475. Plasmid YEpG was purified by the alkali lysis method followed by phenol deproteination and CsCl/ethidium isopycnic centrifugation as described by Maniatis, T.; Fritsch, E. F.; Sambrook, J. Molecular Cloning, a Laboratory Manual; Cold Spring Harbor Laboratory: Cold Spring Harbor, N.Y. 1982; pp 149-185. The end-labeling of the plasmid was accomplished by digestion with a restriction enzyme followed by end-filling with Klenow polymerase as previously described by Liu, L. F.; Rowe, T. C.; Yang, L.; Tewey, K. M.; Chen, G. L. “Cleavage of DNA by mammalian topoisomerase II,” J. Biol. Chem. 1983, 258, 15365.

[1] = system: calf thymus topoisomerase II; assay: Topoisomerase II-mediated DNA cleavage assay (Test A); type: biochemical; settings: concentration relative to VM-26 (= 1) producing the same cleavage on plasmid DNA
Protocol: as §1, §2

[2] = system: human lymphoblast RPMI 8402; assay: MTT-microtiter plate tetrazolinium cytotoxicity assay (Test B), RPMI 8402; type: cell-based; settings: read-out: Cytotoxicity IC50 RPMI
Protocol: (§3) The cytotoxicity was determined using the MTT-microtiter plate tetrazolinium cytotoxicity assay (MTA) (See Chen A. Y. et al. Cancer Res. 1993, 53, 1332; Mosmann, T. J., J. Immunol. Methods 1983, 65, 55; and Carmichael, J. et al. Cancer Res. 1987, 47, 936).

[3] = system: camptothecin-resistant variant cell line, CPT-K5; assay: MTT-microtiter plate tetrazolinium cytotoxicity assay (Test B), CPT-K5; type: cell-based, human; settings: read-out: Cytotoxicity IC50 CPT-K5
Protocol: as §3

[4] = Homo sapiens, 96 h, CPT-K5 camptothecin-resistant cells, 4 days of continuous drug exposure

Topo I-mediated DNA cleavage (REC, Relative Effective Concentration) (human topoisomerase I)	melting point	Compound	Topo II-mediated DNA cleavage (REC, Relative Effective Concentration) [1]	IC50 ([2]; Homo sapiens, 96 h, RPMI 8402 cells, 4 days of continuous drug exposure)	IC50 [3, 4]	topoisomerase I poisoning activity (in words) (human topoisomerase I)	IC50 ([2]; Homo sapiens, RPMI 8402, 96 h)	IC50 ([3]; Homo sapiens, CPT-K5, 96 h)	IC50 ([2]; RPMI 8402 cells, 4 days of continuous drug exposure)	IC50 ([3]; CPT-K5 camptothecin-resistant cells, 4 days of continuous drug exposure)
100	–	2,3,8,9-Dimethylenedioxybenzo[i]phenanthridine [Compound 29]	>1000	–	–	–	–	–	–	–
>1000	267 to 268 °C	COc1cc2ccc3c4cc(OC)c(OC)cc4ncc3c2cc1OC [Compound 4, 2,3,8,9-Tetramethoxybenzo[i]phenanthridine]	>1000	–	–	significantly less topoisomerase I poisioning activity	22.9 µM	22.9 µM	–	–
>1000	255 to 257 °C	COc1cc2ccc3c4cc(OC)c(OC)cc4nc(C)c3c2cc1OC [Compound 5, 5-Methyl-2,3,8,9-tetramethoxybenzo[i]phenanthridine]	>1000	–	–	significantly less topoisomerase I poisioning activity	27.5 µM	> 27.5 µM	–	–
100	> 250 °C	COc1cc2ncc3c4cc5c(cc4ccc3c2cc1OC)OCO5 [Compound 6, 2,3-Methylenedioxy-8,9-dimethoxybenzo[i]phenanthridine]	10	–	–	potent activity	7.5 µM	7 µM	–	–
200	> 250 °C	COc1cc2nc(C)c3c4cc5c(cc4ccc3c2cc1OC)OCO5 [Compound 7, 8,9-Dimethoxy-5-methyl-2,3-methylenedioxybenzo[i]-phenanthridine]	100	–	–	potent activity	10.1 µM	14.4 µM	–	–
25	171 °C	COc1cc2ccc3c4cc5c(cc4ncc3c2cc1OC)OCO5 [Compound 28, 2,3-Dimethoxy-8,9-methylenedioxybenzo[i]phenanthridine]	>1000	–	–	potent topoisomerase poisioning activity	0.2 µM	0.2 µM	–	–
250	–	COc1cc2ccc3c4cc(OCc5ccccc5)ccc4ncc3c2cc1OC [Compound 30, 2,3-Dimethoxy-9-benzyloxybenzo[i]phenanthridine]	>1000	–	–	–	7.5 µM	7.5 µM	–	–
50	–	COc1cc2ccc3c4cc(N)ccc4ncc3c2cc1OC [Compound 31, 2,3-Dimethoxy-9-aminobenzo[i]phenanthridine]	>1000	–	–	–	3 µM	3 µM	–	–
–	200 to 202 °C	COc1ccc2c(c1)ncc1c3cc(OC)c(OC)cc3ccc21 [Example 9, 2,3,8-Trimethoxybenzo[i]phenanthridine]	–	–	–	–	–	–	–	–
1	–	COc1cc2c[n+](C)c3c4cc5c(cc4ccc3c2cc1OC)OCO5 [Nitidine, reference compound]	1	–	> 2.6 µM	–	0.65 µM	–	–	–

Compound	Topo I-mediated DNA cleavage (REC, Relative Effective Concentration) (human topoisomerase I)	melting point	Topo II-mediated DNA cleavage (REC, Relative Effective Concentration) [1]	IC50 ([2]; Homo sapiens, 96 h, RPMI 8402 cells, 4 days of continuous drug exposure)	IC50 [3, 4]	topoisomerase I poisoning activity (in words) (human topoisomerase I)	IC50 ([2]; Homo sapiens, RPMI 8402, 96 h)	IC50 ([3]; Homo sapiens, CPT-K5, 96 h)	IC50 ([2]; RPMI 8402 cells, 4 days of continuous drug exposure)	IC50 ([3]; CPT-K5 camptothecin-resistant cells, 4 days of continuous drug exposure)
CC[C@@]1(O)C(=O)OCc2c1cc1n(c2=O)Cc2cc3ccccc3nc2-1 [CPT, camptothecin, reference compound]	1	–	>1000	0.004 µM	> 10 µM	–	–	–	–	–
COc1cc([C@@H]2c3cc4c(cc3[C@@H](O[C@@H]3O[C@@H]5CO[C@@H](c6cccs6)O[C@H]5[C@H](O)[C@H]3O)[C@H]3COC(=O)[C@H]23)OCO4)cc(OC)c1O [VM-26, teniposide, reference compound]	>1000	–	1	–	–	–	–	–	0.3 µM	0.5 µM
